Data from ChEMBL document CHEMBL3286222, “Synthesis and antiproliferative studies of 5-aryl-2-(3-thienylamino)-1,3,4-thiadiazoles” (Bioorg Med Chem Lett, 2014).

Legend:
[1] = Cytotoxicity against human U373 cells assessed as growth inhibition after 72 hrs by MTT colorimetric assay; format: functional, cell-based, U-373MG ATCC; settings: U373 MG
MCF7 [2] = assay: Cytotoxicity against human MCF7 cells assessed as growth inhibition after 72 hrs by MTT colorimetric assay; format: functional, cell-based; settings: MCF7, 72 h
SK-MEL-28 [3] = assay: Cytotoxicity against human SK-MEL-28 cells assessed as growth inhibition after 72 hrs by MTT colorimetric assay; format: functional, cell-based; settings: SK-MEL-28, 72 h
[4] = Cytotoxicity against mouse B16F10 cells assessed as growth inhibition after 72 hrs by MTT colorimetric assay; format: functional, cell-based; settings: B16-F10, 72 h
A549 [5] = assay: Cytotoxicity against human A549 cells assessed as cell viability at 50 uM after 72 hrs by MTT colorimetric assay; format: functional; settings: A549, 72 h, read-out: Activity
[6] = Cytotoxicity against human Hs683 cells assessed as cell viability at 5 uM after 72 hrs by MTT colorimetric assay; format: functional; settings: Hs 683, 72 h, read-out: Activity
[7] = Cytotoxicity against human Hs683 cells assessed as growth inhibition after 72 hrs by MTT colorimetric assay; format: functional, cell-based; settings: Hs 683, 72 h
A549 [8] = assay: Cytotoxicity against human A549 cells assessed as growth inhibition after 72 hrs by MTT colorimetric assay; format: functional, cell-based; settings: A549, 72 h
A549 [9] = assay: Cytotoxicity against human A549 cells assessed as cell viability at 0.5 uM after 72 hrs by MTT colorimetric assay; format: functional; settings: A549, 72 h, read-out: Activity
MCF7 [10] = assay: Cytotoxicity against human MCF7 cells assessed as cell viability at 50 uM after 72 hrs by MTT colorimetric assay; format: functional; settings: MCF7, 72 h, read-out: Activity
[11] = Cytotoxicity against mouse B16F10 cells assessed as cell viability at 5 uM after 72 hrs by MTT colorimetric assay; format: functional; settings: B16-F10, 72 h, read-out: Activity
A549 [12] = assay: Cytotoxicity against human A549 cells assessed as cell viability at 100 uM after 72 hrs by MTT colorimetric assay; format: functional; settings: A549, 72 h, read-out: Activity
[13] = Cytotoxicity against mouse B16F10 cells assessed as cell viability at 0.5 uM after 72 hrs by MTT colorimetric assay; format: functional; settings: B16-F10, 72 h, read-out: Activity
[14] = Cytotoxicity against human Hs683 cells assessed as cell viability at 10 uM after 72 hrs by MTT colorimetric assay; format: functional; settings: Hs 683, 72 h, read-out: Activity
A549 [15] = assay: Cytotoxicity against human A549 cells assessed as cell viability at 5 uM after 72 hrs by MTT colorimetric assay; format: functional; settings: A549, 72 h, read-out: Activity
[16] = Cytotoxicity against mouse B16F10 cells assessed as cell viability at 1 uM after 72 hrs by MTT colorimetric assay; format: functional; settings: B16-F10, 72 h, read-out: Activity
[17] = Cytotoxicity against human Hs683 cells assessed as cell viability at 0.05 uM after 72 hrs by MTT colorimetric assay; format: functional; settings: Hs 683, 72 h, read-out: Activity
[18] = Cytotoxicity against human U373 cells assessed as cell viability at 0.5 uM after 72 hrs by MTT colorimetric assay; format: functional, U-373MG ATCC; settings: U373 MG, read-out: Activity
MCF7 [19] = assay: Cytotoxicity against human MCF7 cells assessed as cell viability at 0.5 uM after 72 hrs by MTT colorimetric assay; format: functional; settings: MCF7, 72 h, read-out: Activity
SK-MEL-28 [20] = assay: Cytotoxicity against human SK-MEL-28 cells assessed as cell viability at 0.5 uM after 72 hrs by MTT colorimetric assay; format: functional; settings: SK-MEL-28, 72 h, read-out: Activity
NHDF = assay: Cytotoxicity against human NHDF cells assessed as growth inhibition after 72 hrs by MTT colorimetric assay; format: cell-based
[21] = Cytotoxicity against human NHLF cells assessed as growth inhibition after 72 hrs by MTT colorimetric assay; format: cell-based
[22] = Cytotoxicity against human Hs683 cells assessed as cell viability at 50 uM after 72 hrs by MTT colorimetric assay; format: functional; settings: Hs 683, 72 h, read-out: Activity
MCF7 [23] = assay: Cytotoxicity against human MCF7 cells assessed as cell viability at 100 uM after 72 hrs by MTT colorimetric assay; format: functional; settings: MCF7, 72 h, read-out: Activity
[24] = Cytotoxicity against mouse B16F10 cells assessed as cell viability at 50 uM after 72 hrs by MTT colorimetric assay; format: functional; settings: B16-F10, 72 h, read-out: Activity
[25] = Cytotoxicity against human Hs683 cells assessed as cell viability at 100 uM after 72 hrs by MTT colorimetric assay; format: functional; settings: Hs 683, 72 h, read-out: Activity
[26] = Cytotoxicity against human Hs683 cells assessed as cell viability at 0.5 uM after 72 hrs by MTT colorimetric assay; format: functional; settings: Hs 683, 72 h, read-out: Activity
SK-MEL-28 [27] = assay: Cytotoxicity against human SK-MEL-28 cells assessed as cell viability at 100 uM after 72 hrs by MTT colorimetric assay; format: functional; settings: SK-MEL-28, 72 h, read-out: Activity
[28] = Cytotoxicity against human Hs683 cells assessed as cell viability at 1 uM after 72 hrs by MTT colorimetric assay; format: functional; settings: Hs 683, 72 h, read-out: Activity
[29] = Cytotoxicity against human U373 cells assessed as cell viability at 10 uM after 72 hrs by MTT colorimetric assay; format: functional, U-373MG ATCC; settings: U373 MG, read-out: Activity
A549 [30] = assay: Cytotoxicity against human A549 cells assessed as cell viability at 10 uM after 72 hrs by MTT colorimetric assay; format: functional; settings: A549, 72 h, read-out: Activity
MCF7 [31] = assay: Cytotoxicity against human MCF7 cells assessed as cell viability at 5 uM after 72 hrs by MTT colorimetric assay; format: functional; settings: MCF7, 72 h, read-out: Activity

Structure (SMILES)	IC50 [1] [µM]	IC50 (MCF7 [2]) [µM]	IC50 (SK-MEL-28 [3]) [µM]	IC50 [4] [µM]	IC50 [7] [µM]	IC50 (A549 [8]) [µM]	also measured
Cc1ccc(-c2nnc(Nc3csc(-c4ccccc4)c3)s2)cc1	> 100	34	> 100	4			viability at 50 µM (A549 [5]): < 50%; viability at 5 µM [6]: < 50%
Cc1ccc(C(=O)NNC(=S)Nc2csc(-c3ccccc3)c2)cc1	62	30	40	24	37	40	
COc1cc(OC)cc(C(=O)NNC(=S)Nc2csc(-c3ccc(C)cc3)c2)c1	41	26	38	13	37	32	
COc1ccc(-c2nnc(Nc3csc(-c4ccccc4)c3)s2)cc1	92	60	> 100	6	5	8	
COc1ccc(-c2nnc(Nc3csc(-c4ccc(C)cc4)c3)s2)cc1OC	> 100		> 100				viability at 0.5 µM (A549 [9]): < 50%; viability at 50 µM (MCF7 [10]): < 50%; viability at 5 µM [11]: < 50%; viability at 5 µM [6]: < 50%
COc1cc(-c2nnc(Nc3csc(-c4ccccc4)c3)s2)cc(OC)c1OC	> 100	> 100	> 100				viability at 100 µM (A549 [12]): < 50%; viability at 0.5 µM [13]: < 50%; viability at 5 µM [6]: < 50%
Cc1ccc(-c2cc(NC(=S)NNC(=O)c3ccc(O)cc3)cs2)cc1	64	42	46	48	49	44	
COc1ccc(-c2cc(Nc3nnc(-c4ccc(C)cc4)s3)cs2)cc1	> 100	> 100	> 100				viability at 10 µM [14]: < 50%; viability at 5 µM (A549 [15]): < 50%; viability at 1 µM [16]: < 50%
COc1cc(-c2nnc(Nc3csc(-c4ccc(C)cc4)c3)s2)cc(OC)c1OC				12			viability at 0.05 µM [17]: < 50%; viability at 0.5 µM [18]: < 50%; viability at 0.5 µM (A549 [9]): < 50%; viability at 0.5 µM (MCF7 [19]): < 50%; viability at 0.5 µM (SK-MEL-28 [20]): < 50%
COc1cc(C(=O)NNC(=S)Nc2csc(-c3ccc(C)cc3)c2)cc(OC)c1OC	47	31	42	13	42	39	
COc1cc(OC)cc(C(=O)NNC(=S)Nc2csc(-c3ccccc3)c2)c1	40	38	37	30	42	39	
Oc1ccc(-c2nnc(Nc3csc(-c4ccccc4)c3)s2)cc1	58	24	57	8	26	15	
COc1ccc(C(=O)NNC(=S)Nc2csc(-c3ccc(C)cc3)c2)cc1	19	5	11	9	12	11	IC50 (NHDF): 22 µM; IC50 [21]: 28 µM
Cc1ccc(-c2cc(Nc3nnc(-c4ccc(O)cc4)s3)cs2)cc1	8	8	14	6	17	6	
O=C(NNC(=S)Nc1csc(-c2ccccc2)c1)c1ccc(O)cc1	> 100	78	71	40	80	75	
COc1ccc(C(=O)NNC(=S)Nc2csc(-c3ccccc3)c2)cc1OC	59	21	28	9	22	20	
COc1cc(OC)cc(-c2nnc(Nc3csc(-c4ccccc4)c3)s2)c1	92		> 100				viability at 50 µM [22]: < 50%; viability at 100 µM (A549 [12]): < 50%; viability at 100 µM (MCF7 [23]): < 50%; viability at 50 µM [24]: < 50%
COc1ccc(-c2cc(NC(=S)NNC(=O)c3ccc(C)cc3)cs2)cc1	> 100	40	22	7	30	35	
COc1ccc(-c2nnc(Nc3csc(-c4ccccc4)c3)s2)cc1OC	> 100	92	> 100			> 100	viability at 100 µM [25]: < 50%; viability at 0.5 µM [13]: < 50%
COc1ccc(C(=O)NNC(=S)Nc2csc(-c3ccc(C)cc3)c2)cc1OC	47	11	19	7	39	36	
COc1ccc(-c2nnc(Nc3csc(-c4ccc(C)cc4)c3)s2)cc1							viability at 0.5 µM [26]: < 50%; viability at 0.5 µM [18]: < 50%; viability at 0.5 µM (A549 [9]): < 50%; viability at 0.5 µM (MCF7 [19]): < 50%; viability at 100 µM (SK-MEL-28 [27]): < 50%; viability at 1 µM [16]: < 50%
Cc1ccc(C(=O)NNC(=S)Nc2csc(-c3ccc(C)cc3)c2)cc1	38	29	44	20	40	37	
Cc1ccc(-c2cc(Nc3nnc(-c4ccc(C)cc4)s3)cs2)cc1			> 100				viability at 1 µM [28]: < 50%; viability at 0.5 µM [18]: < 50%; viability at 0.5 µM (A549 [9]): < 50%; viability at 100 µM (MCF7 [23]): < 50%; viability at 1 µM [16]: < 50%
COc1ccc(C(=O)NNC(=S)Nc2csc(-c3ccccc3)c2)cc1	41	32	30	33	35	36	
COc1cc(C(=O)NNC(=S)Nc2csc(-c3ccccc3)c2)cc(OC)c1OC	44	43	55	32	42	39	
COc1cc(OC)cc(-c2nnc(Nc3csc(-c4ccc(C)cc4)c3)s2)c1			> 100				viability at 10 µM [29]: < 50%; viability at 10 µM (A549 [30]): < 50%; viability at 5 µM (MCF7 [31]): < 50%; viability at 1 µM [16]: < 50%; viability at 5 µM [6]: < 50%
